From the supplement of paper PMC10331698
± gives the standard deviation of the averaged measurements.

How the values were obtained:
Assay in all cases: level (log10 ratio to DMSO vehicle control); higher = higher biomarker level / cell amount than vehicle control
[1] = compound: O=S(=O)(O)C(F)(F)C(F)(F)C(F)(F)C(F)(F)C(F)(F)C(F)(F)C(F)(F)F [Perfluoroheptanesulfonic acid] (in DMSO)
Experimental: (§1)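 BioMAP Diversity Plus panel of 12 human primary cell co-culture systems (3C, 4H, LPS, SAg, BT, BF4T, BE3C, CASM3C, HDF3CGF, KF3CT, MyoF, Mphg). Compounds were added 1 h before stimulation and left for 24 h (MyoF 48 h; BT 72 h for soluble read-outs or 6 d for IgG). Biomarkers were read by ELISA, cytotoxicity by SRB, PBMC viability and proliferation by Alamar Blue. Each well value was divided by the mean of 8 DMSO control wells on the same plate and log10 transformed; duplicate blinded samples were tested at 4 concentrations.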

[2] = compound: OCC(F)(F)OC(F)(F)C(F)(F)OC(F)(F)C(F)(F)OC(F)(F)CO [1H,1H,11H,11H-Perfluorotetraethylene glycol] (in DMSO)
Experimental: as §1

Octafluoroadipic acid = compound: O=C(O)C(F)(F)C(F)(F)C(F)(F)C(F)(F)C(=O)O [Octafluoroadipic acid] (in DMSO)
Experimental: as §1

[3] = compound: O=C(O)C(F)(OC(F)(F)C(F)(F)C(F)(F)F)C(F)(F)F [Ammonium perfluoro-2-methyl-3-oxahexanoate] (in Water)
Experimental: as §1

[4] = compound: C[C@@H]1C[C@H]2[C@@H]3CCC4=CC(=O)C=C[C@]4(C)[C@@]3(F)[C@@H](O)C[C@]2(C)[C@@]1(O)C(=O)COP(=O)(O)O [Dexamethasone sodium phosphate] (in DMSO)
Experimental: as §1

[5] = compound: O=S(=O)(O)CCC(F)(F)C(F)(F)C(F)(F)C(F)(F)C(F)(F)C(F)(F)C(F)(F)C(F)(F)F [8:2 Fluorotelomer sulfonic acid] (in DMSO)
Experimental: as §1

| Test System | level (log10) ([1]; 1500 nM) | level (log10) ([1]; 4400 nM) | level (log10) ([1]; 13000 nM) | level (log10) ([1]; 40000 nM) | level (log10) ([2]; 6700 nM) | level (log10) ([2]; 20000 nM) | level (log10) ([2]; 60000 nM) | level (log10) (Octafluoroadipic acid; 6700 nM) | level (log10) (Octafluoroadipic acid; 20000 nM) | level (log10) (Octafluoroadipic acid; 60000 nM) | level (log10) ([3]; 6700 nM) | level (log10) ([3]; 20000 nM) | level (log10) ([3]; 60000 nM) | level (log10) ([4]; 1500 nM) | level (log10) ([4]; 4400 nM) | level (log10) ([4]; 13000 nM) | level (log10) ([4]; 40000 nM) | level (log10) ([5]; 6700 nM) | level (log10) ([5]; 20000 nM) | level (log10) ([5]; 60000 nM) |
| --- | --- | --- | --- | --- | --- | --- | --- | --- | --- | --- | --- | --- | --- | --- | --- | --- | --- | --- | --- | --- |
| KF3CT:TIMP-2 | -0.0225 ± 0.013 | -0.0035 ± 0.03 | -0.0195 ± 0.016 | 0.0105 ± 0.0021 | -0.008 ± 0.017 | 0.023 ± 0.0085 | 0.0295 ± 0.0092 | -0.001 ± 0.025 | -0.0015 ± 0.005 | 0.0105 ± 0.0092 | -0.0005 ± 0.037 | -0.002 ± 0.025 | 0.022 ± 0.027 | -0.0095 ± 0.025 | -0.0005 ± 0.021 | -0.0025 ± 0.005 | 0.0155 ± 0.069 | -0.033 ± 0.0042 | 0.0075 ± 0.0064 | 0.0225 ± 0.0021 |
| KF3CT:uPA | 0.008 | -0.0165 ± 0.00071 | -0.0195 ± 0.005 | -0.0055 ± 0.0021 | 0.005 ± 0.0057 | 0.018 ± 0.0099 | 0.024 ± 0.031 | -0.0045 ± 0.039 | -0.0065 ± 0.028 | -0.0055 ± 0.026 | -0.0275 ± 0.043 | -0.009 ± 0.0099 | -0.0175 ± 0.019 | 0 ± 0.011 | 0.012 ± 0.0085 | -0.0085 ± 0.00071 | -0.006 ± 0.017 | 0.007 ± 0.0042 | 0.006 ± 0.024 | 0.012 ± 0.016 |
| MyoF:CD106/VCAM-1 | -0.01 ± 0.0057 | -0.0015 ± 0.005 | -0.0055 ± 0.015 | 0.0145 ± 0.0021 | 0.011 ± 0.0057 | -0.012 ± 0.011 | -0.0985 ± 0.05 | -0.0235 ± 0.005 | -0.0255 ± 0.022 | -0.0085 ± 0.016 | 0.0105 ± 0.033 | 0.012 ± 0.011 | -0.011 ± 0.0099 | -0.0825 ± 0.03 | -0.046 ± 0.0057 | -0.058 ± 0.013 | -0.0655 ± 0.016 | -0.0035 ± 0.0021 | -0.0325 ± 0.016 | -0.084 ± 0.02 |
| MyoF:CXCL8/IL-8 | 0.0195 ± 0.011 | 0.022 ± 0.011 | 0.026 | 0.032 ± 0.023 | -0.0185 ± 0.011 | -0.0215 ± 0.00071 | -0.013 ± 0.018 | -0.0025 ± 0.00071 | 0.002 ± 0.041 | 0.0235 ± 0.046 | -0.0355 ± 0.032 | -0.0385 ± 0.011 | -0.045 ± 0.011 | -0.0725 ± 0.011 | -0.074 ± 0.013 | -0.1 ± 0.011 | -0.104 ± 0.0057 | -0.0085 ± 0.03 | -0.0885 ± 0.046 | -0.157 ± 0.016 |
| MyoF:Collagen I | -0.0035 ± 0.0021 | 0.0135 ± 0.005 | -0.009 ± 0.0085 | 0.0105 ± 0.011 | -0.0005 ± 0.026 | 0.001 ± 0.03 | -0.0495 ± 0.016 | -0.0165 ± 0.018 | -0.021 ± 0.021 | -0.005 ± 0.0042 | -0.0135 ± 0.061 | -0.024 ± 0.024 | -0.027 ± 0.031 | 0.032 ± 0.021 | 0.032 ± 0.0057 | 0.006 ± 0.0071 | 0.027 ± 0.0042 | 0.004 ± 0.0042 | -0.0265 ± 0.026 | -0.024 ± 0.0071 |
| MyoF:Collagen III | -0.0035 ± 0.022 | 0.002 ± 0.0085 | -0.0195 ± 0.013 | -0.006 ± 0.025 | -0.002 | -0.0085 ± 0.011 | -0.0415 ± 0.0078 | -0.002 ± 0.021 | -0.0085 ± 0.028 | -0.0015 ± 0.035 | 0.0135 ± 0.0035 | 0.006 ± 0.023 | -0.035 ± 0.034 | 0.0055 ± 0.021 | 0.0255 ± 0.035 | 0.0185 ± 0.021 | 0.028 ± 0.018 | -0.008 ± 0.017 | -0.04 ± 0.031 | -0.0355 ± 0.023 |
| MyoF:Collagen IV | 0.013 ± 0.018 | -0.017 ± 0.0057 | -0.012 ± 0.013 | 0.0025 ± 0.023 | -0.012 ± 0.0014 | -0.0015 ± 0.011 | 0.0245 ± 0.021 | -0.0175 ± 0.0064 | -0.016 ± 0.016 | 0.002 ± 0.021 | -0.013 ± 0.0057 | 0.0045 ± 0.011 | 0.0105 ± 0.012 | -0.007 ± 0.021 | 0.011 ± 0.041 | 0.0005 ± 0.037 | 0.0195 ± 0.011 | -0.0215 ± 0.019 | -0.0335 ± 0.036 | 0.005 ± 0.0099 |
| MyoF:Decorin | -0.0075 ± 0.015 | -0.006 ± 0.0042 | 0.009 ± 0.0014 | 0.0615 ± 0.011 | -0.009 | -0.013 | 0.019 ± 0.017 | 0.0005 ± 0.011 | -0.0055 ± 0.019 | -0.001 ± 0.013 | -0.048 ± 0.023 | -0.02 ± 0.0085 | -0.024 ± 0.013 | 0.016 ± 0.011 | 0.0385 ± 0.012 | 0.034 ± 0.033 | 0.039 ± 0.042 | 0.0555 ± 0.029 | 0.024 ± 0.03 | -0.001 ± 0.0014 |
| MyoF:MMP-1 | 0.0105 ± 0.039 | -0.0055 ± 0.015 | -0.03 ± 0.0085 | 0.01 ± 0.044 | 0 ± 0.027 | -0.0085 ± 0.015 | 0.0465 ± 0.083 | -0.013 ± 0.025 | -0.0175 ± 0.0035 | 0.0125 ± 0.03 | -0.0025 ± 0.0064 | 0.0185 ± 0.0092 | -0.0095 ± 0.0064 | 0.004 ± 0.031 | 0.005 ± 0.0014 | -0.0315 ± 0.013 | -0.0125 ± 0.005 | -0.0245 ± 0.043 | -0.0365 ± 0.028 | 0.0175 ± 0.005 |
| MyoF:PAI-I | 0.008 ± 0.0085 | 0.0085 ± 0.00071 | 0.005 ± 0.0028 | 0.019 ± 0.023 | -0.01 ± 0.02 | -0.0135 ± 0.013 | -0.01 ± 0.018 | -0.012 ± 0.0099 | -0.01 ± 0.017 | 0.001 ± 0.0085 | -0.0005 ± 0.005 | -0.0025 ± 0.0064 | -0.019 ± 0.011 | 0.0185 ± 0.0078 | 0.0085 ± 0.015 | 0.005 ± 0.0028 | 0.0085 ± 0.012 | -0.008 ± 0.011 | -0.009 ± 0.0042 | 0.0185 ± 0.019 |
| MyoF:SRB | -0.009 ± 0.0099 | 0.002 ± 0.0028 | 0.002 ± 0.0014 | -0.007 ± 0.0042 | -0.0065 ± 0.00071 | -0.0145 ± 0.00071 | -0.0445 ± 0.015 | -0.0105 ± 0.0064 | -0.005 ± 0.013 | -0.0015 ± 0.00071 | 0.0095 ± 0.0035 | 0.013 ± 0.013 | 0.0085 ± 0.0035 | -0.01 ± 0.0099 | -0.0105 ± 0.0035 | -0.0135 ± 0.0092 | -0.0105 ± 0.00071 | -0.0005 ± 0.0021 | -0.009 ± 0.0014 | -0.0035 ± 0.0035 |
| MyoF:TIMP-1 | 0.021 ± 0.04 | 0.013 ± 0.061 | 0.033 ± 0.054 | 0.11 ± 0.0099 | -0.0035 ± 0.012 | 0.017 | 0.0285 ± 0.005 | -0.0155 ± 0.026 | -0.02 ± 0.025 | -0.0485 ± 0.019 | -0.0395 ± 0.0092 | -0.0635 ± 0.015 | -0.068 ± 0.0028 | -0.0965 ± 0.047 | -0.0915 ± 0.067 | -0.135 ± 0.11 | -0.12 ± 0.11 | -0.0185 ± 0.0035 | 0.0095 ± 0.021 | -0.008 ± 0.018 |
| MyoF:alpha-SM Actin | 0.0025 ± 0.1 | 0.0035 ± 0.077 | -0.021 ± 0.064 | 0.0025 ± 0.069 | -0.0125 ± 0.026 | -0.057 ± 0.0042 | -0.167 ± 0.037 | 0.007 ± 0.044 | -0.0105 ± 0.052 | 0.007 ± 0.033 | 0.001 ± 0.011 | 0.0005 ± 0.022 | -0.0035 ± 0.0035 | 0.073 ± 0.051 | 0.084 ± 0.055 | 0.0695 ± 0.057 | 0.0745 ± 0.063 | 0.034 ± 0.02 | 0.001 ± 0.014 | -0.0125 ± 0.025 |
